Measured values from patent US20220313780A1, “METHODS AND COMPOSITIONS FOR TREATING INFLAMMATORY CONDITIONS” (THE SCRIPPS RESEARCH INSTITUTE, priority 2019, published 2022).
“Also recorded” adds a separate entry of the source.

Test system: caspase 1
Experiment: Caspase 1 activity assay in PMA-differentiated THP1 cells treated with LPS and ATP
Format: cell-based, human
Conditions: for caspase 1 activity: peptide 50 μM for 60 min before LPS (1 μg/mL) and ATP (5 mM), THP1 cells
Method: THP1-null (THP1) cells were plated at a final concentration of 1×10^6/mL in 96 well plates and incubated with PMA (0.5 μM) for 3 hours 37° C. in supplemented RPMI. Media was subsequently changed every 24 hours for 3 days. Various subsets of wells were selected and cells were treated for 60 minutes at 37° C. in serum-free RPMI with: (A) APC (4 μg/mL), TR47 (50 μM-2 nM), scrTR47 (50 μM), SFLLRN (50 μM), TFLLRN (50 μM); (B) P3R (50 μM-500 nM), P3K (50 μM); (C) APC (4 or 1 μg/mL), TR47 (8 nM), P3R (500 nM) or TR47+P3R (8 nM and 500 nM, respectively); (D) TR47 (0-128 nM) (●)±P3R (500 nM) (□); (E) P3R (0-500 nM) (●)±TR47 (1 nM) (□). Following DPBS wash, cells were incubated with LPS (1 μg/mL) for 3 hours at 37° C. in serum-free RPMI. After a DPBS wash, cells were incubated with ATP (5 mM) in the presence or absence of 10 μM YVAD (caspase 1 inhibitor) or 2.5 μM ZVAD (pan-caspase inhibitor) for 45 minutes at 37° C., prior to performing the caspase 1 activity assay following manufacturer's directions measuring luminescence (relative luminescent units, RLU). (D & E) Experimental caspase 1 activity was normalized to YVAD (caspase 1 inhibitor) luminescence units. (A-E) Data points represent mean±S.D. of at least 3 independent experiments. *P<0.05 (vs. LPS+ATP); #P<0.05 (vs. LPS+ATP & APC, TR47 or P3R); **P<0.005 (vs. LPS+ATP & TR47+500 nM P3R); n.s. not significant.
THP1 cells were plated at a final concentration of 1×10^6/mL in 96 well plates and incubated with PMA (0.5 μM) for 3 hours 37° C. in supplemented RPMI. Media was subsequently changed every 24 hours for 3 days. Selected wells were treated with APC (4 μg/mL), (A) 50 μM or (B) 2 μM of P3R, P3Rm, P3R 51-65, P3R 51-59, P3R 54-59 or P3R 59-65 for 1 hour, washed with DPBS, and incubated with LPS (1 μg/mL) for 3 hours at 37° C. in serum-free RPMI. Cells were washed with DPBS and incubated with ATP (5 mM) in the presence or absence of 10 μM YVAD (caspase 1 inhibitor; C1i) or 2.5 μM ZVAD (pan-caspase inhibitor; pCi) for 45 minutes at 37° C., prior to performing the caspase 1 activity assay following manufacturer's directions measuring luminescence (relative luminescent units, RLU). (C) Diagram showing the PAR3 sequence, peptide sequences and relative (anti-inflammatory) activity. These include sequences of P3R (SEQ ID NO:4), P3Rm (SEQ ID NO:8), P3R 51-65 (SEQ ID NO:9), P3R 51-59 (SEQ ID NO:10), P3R 54-59 (SEQ ID NO:54) and P3R 59-65 (SEQ ID NO:55).
THP1 cells were plated at a final concentration of 1×10^6/mL in 96 well plates and incubated with PMA (0.5 μM) for 3 hours 37° C. in supplemented RPMI. Media was subsequently changed every 24 hours for 3 days. Selected wells were treated with APC (4 μg/mL), TR47, in (A) 9-mer (TR47 9-mer; NPNDKYEPF (SEQ ID NO:36)) or Ac-TR47 (Acylated TR47) at either 50 μM or 10 nM or (B) 50 μM of 16-mer-TR47, 8-mer-TR47, 6-mer-TR47, TR47 N−1, TR47 N−2, TR47 N−5, TR47AQ, TR47AD, TR47AA or TR48-54 for 1 hour, washed with DPBS, and incubated with LPS (1 μg/mL) for 3 hours at 37° C. in serum-free RPMI. Cells were washed with DPBS and incubated with ATP (5 mM) in the presence or absence of 10 μM YVAD (caspase 1 inhibitor; C1i) or 2.5 μM ZVAD (pan-caspase inhibitor; pCi) for 45 minutes at 37° C., prior to performing the caspase 1 activity assay following manufacturer's directions measuring luminescence (relative luminescent units, RLU). #P<0.001 (vs. LPS+ATP), **P<0.005 (vs. LPS+ATP), * (P<0.05 vs. LPS+ATP). (C) Diagram showing the PAR1 sequence, peptide sequences and relative (anti-inflammatory) activity. These include sequences of TR47 (SEQ ID NO:7), Ac-TR47 (SEQ ID NO:56), 16-mer-TR47 (SEQ ID NO:43), 9-mer-TR47 (SEQ ID NO:36), 8-mer-TR47 (SEQ ID NO:35), 6-mer-TR47 (SEQ ID NO:33), TR47 N−1 (SEQ ID NO:47), TR47 N−2 (SEQ ID NO:51), TR47 N−5 (SEQ ID NO:48), TR47AQ (SEQ ID NO:49), TR47AD (SEQ ID NO:52), TR47AA (SEQ ID NO:50) and TR48-54 (SEQ ID NO:53). […]

Row | Sequence | normalized caspase 1 activity (P3R at ≤500 nM with 1 nM TR47) | caspase 1 activity | caspase 1 activity normalized to caspase 1 inhibited conditions (TR47 at <10 nM in the presence of 500 nM P3R)
1 | GAPPNSFEEFPFSALEGWTGATIT [P3R, PAR3-derived 24-mer peptide] | a significant reduction in normalized caspase 1 activity was observed | reduced caspase 1 activity; also recorded: a significant reduction in caspase 1 activity was observed | 
2 | NPNDKYEPFWEDEEKNESGL [TR47, PAR1-derived 20 amino acid peptide] |  | similarly reduced caspase 1 activity | a reduction in caspase 1 activity was observed
